Data on 18 compounds can be found in PMC3277886, “High-affinity fluorescent ligands for the 5-HT3 receptor” (Bioorganic & Medicinal Chemistry Letters, 2012).

Where two headings read alike, the source gives them in different places.

Assay [1] concerns the target T1, human 5-HT3AR (Homo sapiens, UniProt P46098).
T1 construct: expressed in transfected cells
T1 sequence (P46098 24-478): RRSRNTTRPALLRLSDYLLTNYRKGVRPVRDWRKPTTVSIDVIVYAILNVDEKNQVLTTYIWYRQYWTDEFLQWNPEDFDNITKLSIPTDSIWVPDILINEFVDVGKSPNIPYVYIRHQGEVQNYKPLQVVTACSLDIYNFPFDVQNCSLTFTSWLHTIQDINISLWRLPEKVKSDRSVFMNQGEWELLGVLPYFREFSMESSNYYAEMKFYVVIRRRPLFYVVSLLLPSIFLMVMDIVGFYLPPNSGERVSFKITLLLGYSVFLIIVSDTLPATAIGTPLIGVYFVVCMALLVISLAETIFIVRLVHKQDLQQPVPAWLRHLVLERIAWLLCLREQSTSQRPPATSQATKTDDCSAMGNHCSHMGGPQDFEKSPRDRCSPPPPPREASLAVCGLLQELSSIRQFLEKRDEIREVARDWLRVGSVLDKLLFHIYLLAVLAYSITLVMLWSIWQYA
The assay is described as follows: competition binding studies with [3H]granisetron. The procedure:
The photophysical properties of fluorescent granisetron derivatives were measured in MeOH and/or phosphate buffer at pH 7 (Table 1). […]. […] The binding affinities of the fluorescent granisetron probes for the human 5-HT3AR were determined by competition binding studies with [^3H]granisetron. […]. In terms of probe design it appears that optimal binding is obtained if the fluorophore is conjugated to N1 of granisetron via a short (butyl) aliphatic spacer. […]
(5) Radioligand binding and fluorescence microscopy
Materials, cell culture maintenance, receptor expression and radioligand binding for […]

For assay [2], the target named is T1, human 5-HT3AR. The note with it: read-out: Ki (nM) mean ± SEM; cited from earlier work.
Assay [3] addresses T2, human 5-HT3A receptors (Homo sapiens, UniProt P46098).
T2 construct: myc; expressed in transfected cells; host or cells: COS-7
T2 sequence (P46098 24-478): T1 sequence (P46098 24-478)
The experiment in a line: live cell imaging (fluorescence microscopy) of COS-7 cells transiently transfected with human 5-HT3A receptors. The note with it: 100 nM probe; for selectivity of staining: 5-HT3A-transfected versus mock transfected cells / detectable staining of cells: 1 h; for selectivity of staining: 5-HT3A-transfected versus mock transfected cells / inhibition of staining by co-incubation with ondansetron: live COS-7 cells; for selectivity of staining: 5-HT3A-transfected versus mock transfected cells: transfected vs mock transfected; for detectable staining of cells: HBS buffer, room temperature, live COS-7 cells transfected with human 5-HT3A; for inhibition of staining by co-incubation with ondansetron: co-incubation with ondansetron (OND) 10 μM. Format: cell-based. How it is done:
The utility of granisetron probes 16–18, 26–28 and 36 to fluorescently label the receptor was studied using live cell imaging of COS-7 cells transiently transfected with human 5-HT3A receptors.
Figure 2 Fluorescent labeling of human 5-HT3AR in live COS-7 cells. Cells were either transfected with human 5HT3A cDNA (left and middle panels), or mock transfected (right panels). 24 h later they were incubated with 100 nM of probes 16, 18 or 28 in HBS buffer for 1 h at room temperature in the dark. The cells were imaged using a fluorescence microscope set to the appropriate absorption/emission wavelengths (Table 1). Some cells were also co-incubated with 10 μM ondansetron (OND, middle panels) to block 5-HT3 receptors. Scale bar represents 50 μm. […]
(5) Radioligand binding and fluorescence microscopy […]
For the fluorescence microscopy experiments COS-7 cells were transiently transfected with human 5-HT3A-myc cDNA (10 µg per transfection of […]) by electroporation (400 V, ∞ Ω, 125 µF), and grown on coverslips for 24 hours. Cells were washed with HBS then incubated with 100 nM of each probe (diluted in HBS) for 1 hour at room temperature in the dark. In some experiments 10 µM unlabelled ondansetron (OND) was co-incubated with the probes. Excess probe was removed by washing four times in HBS, and coverslips were placed in an imaging chamber with 1 ml HBS. Cells were then imaged using a fluorescence microscope set to the appropriate emission/excitation wavelengths. […]

The mark [4] stands for this setting: human 5-HT3AR, competition with [3H]granisetron, read-out: Ki (nM) mean ± SEM.

Usually Ki stands for a measure of affinity in units of concentration, obtained from inhibition or displacement. On to `CCN(CC)c1ccc2cc(C(=O)NCCOCCOCCOc3cccc4c(C(=O)N[C@@H]5C[C@H]6CCC[C@@H](C5)N6C)nn(C)c34)c(=O)oc2c1` [Probe 38], for which, in assay [1] (setting [4]), the Ki turned out to be 1300 nM. Still for that read-out and setting: to `CCN(CC)c1ccc2cc(C(=O)NCCOCCOCCn3nc(C(=O)NC4CC5CCCC(C4)N5C)c4ccccc43)c(=O)oc2c1` (stereo not drawn) [Probe 20] belongs 142 ± 5 nM. The compound `CN1[C@@H]2CCC[C@H]1C[C@@H](NC(=O)c1nn(C)c3c(OCCOCCOCCNC(=S)Nc4ccc(-c5c6ccc(=O)cc-6oc6cc(O)ccc56)c(C(=O)O)c4)cccc13)C2` [Probe 39] showed an inhibition constant Ki in assay [1] of 208 ± 55 nM. With `CN1C2CCCC1CC(NC(=O)c1nn(CCOCCOCCNC(=S)Nc3ccc(-c4c5ccc(=O)cc-5oc5cc(O)ccc45)c(C(=O)O)c3)c3ccccc13)C2` (stereo not drawn) [Probe 21], the Ki in assay [1] (setting [4]) was 6300 nM.

`CCN(CC)c1ccc2c(-c3ccc(NC(=S)NCCOCCOCCn4nc(C(=O)NC5CC6CCCC(C5)N6C)c5ccccc54)cc3C(=O)[O-])c3ccc(=[N+](CC)CC)cc-3oc2c1` (stereo not drawn) [Probe 22]: the Ki in assay [1] (setting [4]) is 384 ± 68 nM. In assay [1], `CCN(CC)c1ccc2cc(C(=O)NCCCn3nc(C(=O)NC4CC5CCCC(C4)N5C)c4ccccc43)c(=O)oc2c1` (stereo not drawn) [Probe 15] came in with a Ki of 199 ± 39 nM. Still for that read-out and setting: the value for `CCN(CC)c1ccc2cc(C(=O)NCCOc3cccc4c(C(=O)NC5CC6CCCC(C5)N6C)nn(C)c34)c(=O)oc2c1` (stereo not drawn) [Probe 36] was 1.9 ± 0.9 nM. As to `COc1cccc2c1c(C(=O)NC1CC3CCCC(C1)N3C)nn2C` (stereo not drawn) [Probe 2], the Ki in assay [2] is 26 ± 7 nM.

For `CC1=CC(C)=[N+]2C1=C(CCCOC(=O)CCCn1nc(C(=O)NC3CC4CCCC(C3)N4C)c3ccccc31)c1c(C)cc(C)n1[B-]2(F)F` (stereo not drawn) [Probe 28], the Ki in assay [1] (setting [4]) was found to be 1.6 ± 0.8 nM. Further, in assay [3], the “selectivity of staining: 5-HT3A-transfected versus mock transfected cells” value (shortened to “selectivity of staining”) is “intense fluorescence in both 5-HT3A- and mock-transfected cells”; the “detectable staining of cells” value was “detectable staining”; the “inhibition of staining by co-incubation with ondansetron” value (“inhibition of staining by co-incubation” for short) was “not blocked by ondansetron”. For the compound `CN1C2CCCC1CC(NC(=O)c1nn(CCCNc3ccc([N+](=O)[O-])c4nonc34)c3ccccc13)C2` (stereo not drawn) [Probe 26], the inhibition constant (Ki) in assay [1] (setting [4]) was determined as 8.7 ± 5.8 nM. On to `Cc1cc(C)n2c1C=C1C=CC(CCC(=O)NCCCn3nc(C(=O)NC4CC5CCCC(C4)N5C)c4ccccc43)=[N+]1[B-]2(F)F` (stereo not drawn) [Probe 6], for which the inhibition constant Ki in assay [2] is 2.8 ± 0.7 nM.

In assay [1], `CCN(CC)c1ccc2cc(C(=O)NCCCOc3cccc4c(C(=O)N[C@H]5C[C@H]6CCC[C@@H](C5)N6C)nn(C)c34)c(=O)oc2c1` [Probe 37] had a Ki of 157 ± 9 nM. For the compound `CN1C2CCCC1CC(NC(=O)c1nn(CCCCNC(=S)Nc3ccc(-c4c5ccc(=O)cc-5oc5cc(O)ccc45)c(C(=O)O)c3)c3ccccc13)C2` (stereo not drawn) [Probe 18], the affinity in assay [1] corresponds to a Ki of 1.1 ± 0.2 nM. In assay [3], the “selectivity of staining” value was “selective staining for 5-HT3R”, the “detectable staining of cells” value was “detectable staining” and the “inhibition of staining by co-incubation” value is reported as “inhibited by co-incubation with the 5-HT3R antagonist ondansetron”. In the case of `COc1cccc2c(C(=O)NC3CC4CCCC(C3)N4C)nn(C)c12` (stereo not drawn) [Probe 5], the Ki in assay [2] was 71 ± 8 nM.

The compound `COc1ccc(C2=[N+]3C(=Cc4c(C)c(CCC(=O)NCCCCCC(=O)NCCCn5nc(C(=O)NC6CC7CCCC(C6)N7C)c6ccccc65)c(C)n4[B-]3(F)F)C=C2)cc1` (stereo not drawn) [Probe 14] returned a Ki in assay [1] of 0.9 ± 0.3 nM. For the compound `CN1C2CCCC1CC(NC(=O)c1nn(CCCNC(=S)Nc3ccc(-c4c5ccc(=O)cc-5oc5cc(O)ccc45)c(C(=O)O)c3)c3ccccc13)C2` (stereo not drawn) [Probe 16], the Ki in assay [1] (setting [4]) was 1.6 ± 0.3 nM. In assay [3], the “selectivity of staining” value is “selective staining for 5-HT3R”, the “detectable staining of cells” value is on record as “detectable staining” and the “inhibition of staining by co-incubation” value is listed as “inhibited by co-incubation with the 5-HT3R antagonist ondansetron”. For the compound `CCN(CC)c1ccc2cc(C(=O)NCCCCn3nc(C(=O)NC4CC5CCCC(C4)N5C)c4ccccc43)c(=O)oc2c1` (stereo not drawn) [Probe 17], the Ki in assay [1] (setting [4]) turned out to be 7.3 ± 2.5 nM.

Take `CN(C)c1cccc2c(S(=O)(=O)NCCCn3nc(C(=O)N[C@H]4C[C@H]5CCC[C@@H](C4)N5C)c4ccccc43)cccc12` [Probe 27]: the Ki in assay [1] (setting [4]) was 1.2 ± 0.6 nM.
